SMILES strings stand for the structures.

The first test concerns the target T1, human Y5 receptor (Homo sapiens, UniProt Q15761).
T1 construct: expressed in transfected cells; host or cells: mouse fibroblast LM(tk-) cells, e.g. L-hY5-7 (ATCC CRL-11995)
T1 sequence (Q15761 1-445): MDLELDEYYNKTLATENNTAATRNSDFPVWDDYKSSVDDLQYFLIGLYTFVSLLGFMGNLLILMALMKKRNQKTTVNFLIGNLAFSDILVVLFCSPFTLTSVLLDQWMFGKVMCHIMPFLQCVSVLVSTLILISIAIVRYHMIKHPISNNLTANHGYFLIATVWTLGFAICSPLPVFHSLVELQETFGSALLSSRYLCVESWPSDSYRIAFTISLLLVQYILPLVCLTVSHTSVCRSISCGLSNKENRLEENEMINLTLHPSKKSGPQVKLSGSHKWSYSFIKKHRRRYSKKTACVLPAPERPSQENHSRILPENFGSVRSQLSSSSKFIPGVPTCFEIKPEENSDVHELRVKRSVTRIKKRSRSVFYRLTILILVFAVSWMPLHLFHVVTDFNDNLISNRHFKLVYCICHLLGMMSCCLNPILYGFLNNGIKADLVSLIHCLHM
Briefly: Radioligand binding to membranes, cloned human Y5 receptor. The conditions noted are these: Table 2; read-out: Ki (nM) hNPY-5.
For orientation: Ki means a measure of affinity in units of concentration, obtained from inhibition or displacement. `CCNc1nc(NCC)nc(NCC2CCC(CNS(=O)(=O)c3ccc(C(C)(C)C)cc3)CC2)n1` (centres unmarked) [Example 29, N1-[4-([4,6-di(ethylamino)-1,3,5-triazin-2-yl]aminomethyl)cyclohexyl]methyl-4-(tert-butyl)-1-benzenesulfonamide]: the Ki came out at 50 nM.

As to `CCNc1nc(NCC)nc(NCC2CCC(CNS(=O)(=O)c3ccc(F)cc3)CC2)n1` (centres unmarked) [Example 30, N1-[4-([4,6-di(ethylamino)-1,3,5-triazin-2-yl]aminomethyl)cyclohexyl]methyl-4-fluoro-1-benzenesulfonamide], the Ki amounted to 40 nM.

With `CCNc1nc(NCC)nc(NCC2CCC(CNS(=O)(=O)c3cc(C)ccc3OC)CC2)n1` (centres unmarked) [Example 31, N1-[4-([4,6-di(ethylamino)-1,3,5-triazin-2-yl]aminomethyl)cyclohexyl]methyl-2-methoxy-5-methyl-1-benzenesulfonamide], the Ki is 25 nM.

Take `CCNc1nc(NCC)nc(NCC2CCC(CNS(=O)(=O)c3ccccc3F)CC2)n1` (centres unmarked) [Example 32, N1-[4-([4,6-di(ethylamino)-1,3,5-triazin-2-yl]aminomethyl)cyclohexyl]methyl-2-fluoro-1-benzenesulfonamide]: the Ki came to 35 nM.

Consider `CCNc1nc(NCC)nc(NCC2CCC(CNS(=O)(=O)c3ccccc3C)CC2)n1` (centres unmarked) [Example 33, N1-[4-([4,6-di(ethylamino)-1,3,5-triazin-2-yl]aminomethyl)cyclohexyl]methyl-2-methyl-1-benzenesulfonamide], for which the Ki was 22 nM.

Consider `CCNc1nc(NCC)nc(NCC2CCC(CNS(=O)(=O)c3cccnc3)CC2)n1` (centres unmarked) [Example 34, N3-[4-([4,6-di(ethylamino)-1,3,5-triazin-2-yl]aminomethyl)cyclohexyl]methyl-3-pyridinesulfonamide], for which the Ki worked out at 427 nM.

Regarding `CCNc1nc(NCC)nc(NCC2CCC(CNS(=O)(=O)c3ccc(OC)cc3)CC2)n1` (centres unmarked) [Example 35, N1-[4-([4,6-di(ethylamino)-1,3,5-triazin-2-yl]aminomethyl)cyclohexyl]methyl-4-methoxy-1-benzenesulfonamide], the Ki stood at 82 nM.

As for `CCNc1nc(NCC)nc(NCC2CCC(CNS(=O)(=O)c3oc(C)nc3C)CC2)n1` (centres unmarked) [Example 36, N5-[4-([4,6-di(ethylamino)-1,3,5-triazin-2-yl]aminomethyl)cyclohexyl]methyl-2,4-dimethyl-1,3-oxazole-5-sulfonamide], the inhibition constant (Ki) amounted to 71 nM.

Take `CCNc1nc(NCC)nc(NCC2CCC(CNS(=O)(=O)c3cn(C)cn3)CC2)n1` (centres unmarked) [Example 38, N4-[4-([4,6-di(ethylamino)-1,3,5-triazin-2-yl]aminomethyl)cyclohexyl]methyl-1-methyl-1H-4-imidazolesulfonamide]: the Ki was 313 nM.

Consider `CCNc1nc(NCC)nc(NCC2CCC(CNS(=O)(=O)c3ccc(C)cc3)CC2)n1` (centres unmarked) [Example 39, N1-[4-([4,6-di(ethylamino)-1,3,5-triazin-2-yl]aminomethyl)cyclohexyl]methyl-4-methyl-1-benzenesulfonamide], for which the Ki came out at 28 nM.

Turning to `CCNc1nc(NCC)nc(NCC2CCC(CNS(=O)(=O)c3ccc4nsnc4c3)CC2)n1` (centres unmarked) [Example 40, N5-[4-([4,6-di(ethylamino)-1,3,5-triazin-2-yl]aminomethyl)cyclohexyl]methyl-2,1,3-benzothiadiazole-5-sulfonamide], the inhibitory constant (Ki) turned out to be 5 nM.

Consider `CCNc1nc(NCC)nc(NCC2CCC(CNS(=O)(=O)c3cccc4cccnc34)CC2)n1` (centres unmarked) [Example 41, N8-[4-([4,6-di(ethylamino)-1,3,5-triazin-2-yl]aminomethyl)cyclohexyl]methyl-8-quinolinesulfonamide], for which the Ki was determined as 13 nM.

On to `CCNc1nc(NCC)nc(NCC2CCC(CNS(C)(=O)=O)CC2)n1` (centres unmarked) [Example 42, N-[4-([4,6-di(ethylamino)-1,3,5-triazin-2-yl]aminomethyl)cyclohexyl]methylmethanesulfonamide], for which the Ki was 3070 nM.

Still in this test, the particulars now being: Table 3; read-out: Ki (nM) hNPY-5.
For the molecule `CC(C)Nc1nc(NCC2CCC(CNS(=O)(=O)N3CCCC3)CC2)nc(N2CCCC2)n1` (centres unmarked) [Example 43, N1-[4-([4-(isopropylamino)-6-tetrahydro-1H-1-pyrrolyl-1,3,5-triazin-2-yl]aminomethyl)cyclohexyl]methyl-1-pyrrolidinesulfonamide], the Ki was 43 nM.

As to `CC(C)Nc1nc(NCC2CCC(CNS(=O)(=O)N3CCOCC3)CC2)nc(N2CCOCC2)n1` (centres unmarked) [Example 44, N4-[4-([4-(isopropylamino)-6-morpholino-1,3,5-triazin-2-yl]aminomethyl)cyclohexyl]methyl-4-morpholinesulfonamide], the Ki turned out to be 295 nM.

Turning to `CC(C)Nc1nc(NCC2CCC(CNS(=O)(=O)N3CCCCC3)CC2)nc(N2CCCCC2)n1` (centres unmarked) [Example 45, N1-[4-([4-(isopropylamino)-6-piperidino-1,3,5-triazin-2-yl]aminomethyl)cyclohexyl]methyl-1-piperidinesulfonamide], the Ki came to 59 nM.

Regarding `CC(C)(C)c1ccc(S(=O)(=O)NCC2CCC(CNc3nc(N4CCCC4)nc(N4CCCC4)n3)CC2)cc1` (centres unmarked) [Example 46, N1-[(4-[(4,6-ditetrahydro-1H-1-pyrrolyl-1,3,5-triazin-2-yl)amino]methylcyclohexyl)methyl]-4-(tert-butyl)-1-benzenesulfonamide], the Ki came out at 68 nM.

`CC(C)Nc1nc(NCC2CCC(CNS(=O)(=O)NC3CC3)CC2)nc(NC2CC2)n1` (centres unmarked) [Example 47, N-cyclopropyl-N′-[4-([4-(cyclopropylamino)-6-(isopropylamino)-1,3,5-triazin-2-yl]aminomethyl)cyclohexyl]methylsulfamide]: the Ki stood at 359 nM.

As to `CC(C)Nc1nc(NCC2CCC(CNS(=O)(=O)N(C)C)CC2)nc(NC2CC2)n1` (centres unmarked) [Example 48, N′-[4-([4-(cyclopropylamino)-6-(isopropylamino)-1,3,5-triazin-2-yl]aminomethyl)cyclohexyl]methyl-N,N-dimethylsulfamide], the Ki is 192 nM.

Take `CN(C)S(=O)(=O)NCC1CCC(CNc2nc(N3CCOCC3)nc(N3CCOCC3)n2)CC1` (centres unmarked) [Example 50, N′-[(4-[(4,6-dimorpholino-1,3,5-triazin-2-yl)amino]methylcyclohexyl)methyl]-N,N-dimethylsulfamide]: the Ki was 3510 nM.

Take `CC(C)Nc1nc(Cl)nc(NCC2CCC(CNS(=O)(=O)c3ccc(C(C)(C)C)cc3)CC2)n1` (centres unmarked) [Example 51, N1-[4-([4-chloro-6-(isopropylamino)-1,3,5-triazin-2-yl]aminomethyl)cyclohexyl]methyl-4-(tert-butyl)-1-benzenesulfonamide]: the Ki turned out to be 3540 nM.

As for `O=S(=O)(NCC1CCC(CNc2nc(NC3CC3)nc(N3CCCC3)n2)CC1)c1ccc(F)cc1` (centres unmarked) [Example 52, N1-[4-([4-(cyclopropylamino)-6-tetrahydro-1H-1-pyrrolyl-1,3,5-triazin-2-yl]aminomethyl)cyclohexyl]methyl-4-fluoro-1-benzenesulfonamide], the Ki was found to be 101 nM.

In the case of `CN(C)S(=O)(=O)NCC1CCC(CNc2nc(Cl)nc(Cl)n2)CC1` (centres unmarked) [Example 53, N′-((4-(((4,6-dichloro-1,3,5-triazin-2-yl)amino)methyl)cyclohexyl)methyl)-N,N-dimethylsulfamide], the Ki was determined as 20700 nM.

With `O=S(=O)(NCC1CCC(CNc2nc(NC3CC3)nc(-c3ccccn3)n2)CC1)c1ccc(F)cc1` (centres unmarked) [Example 55, N1-[4-([4-(cyclopropylamino)-6-(2-pyridyl)-1,3,5-triazin-2-yl]aminomethyl)cyclohexyl]methyl-4-fluoro-1-benzenesulfonamide], the Ki worked out at 209 nM.

Staying with this test, now noted: Table 4; read-out: Ki (nM) hNPY-5.
With `CCNc1nc(NCC)nc(NCCCCCn2cccn2)n1` [Example 56, N2,N4-diethyl-N6-[5-(1H-1-pyrazolyl)pentyl]-1,3,5-triazine-2,4,6-triamine], the Ki amounted to 94400 nM.

For the molecule `CCNc1nc(NCC)nc(NCCCn2ccnc2)n1` [Example 57, N2,N4-diethyl-N6-[3-(1H-1-imidazolyl)propyl]-1,3,5-triazine-2,4,6-triamine], the Ki was above 100000 nM.

For `CCNc1nc(NCC)nc(NCc2ccccn2)n1` [Example 58, N2,N4-diethyl-N6-(2-pyridylmethyl)-1,3,5-triazine-2,4,6-triamine], the Ki was above 100000 nM.

The test is the same for the next values; noted with them: Table 5; read-out: Ki, nM hNPY-5.
`COc1ccc(S(=O)(=O)NCCCCCNc2nc(-c3ccccn3)cs2)cc1` [Example 62, 2-(5-(4-Methoxyphenyl)sulfonylamino)pentylamino-4-(2-pyridyl)thiazole hydrogen chloride]: the Ki was 33 nM.

For the molecule `O=S(=O)(NCCCCCNc1nc(-c2ccccn2)cs1)c1ccc(F)c(F)c1` [Example 64, 2-(5-(3,4-Difluorophenyl)sulfonylamino)pentylamino-4-(2-pyridyl)thiazole hydrogen chloride], the Ki is 42 nM.

Consider `O=S(=O)(Cc1ccccc1)NCCCCCNc1nc(-c2ccccn2)cs1` [Example 66, 2-(5-(Benzylsulfonylamino)pentylamino-4-(2-pyridyl)thiazole hydrogen chloride], for which the Ki came to 45 nM.

As for `COc1ccc(C)cc1S(=O)(=O)N[C@H]1CC[C@H](CNc2nc(-c3ccccn3)cs2)CC1` [Example 83, trans-2-(4-(2-Methoxy-5-methylphenyl)sulfonylamino)-cyclohexylmethylamino-4-(2-pyridyl)thiazole dihydrogen chloride], the Ki was determined as 4 nM.

Consider `O=S(=O)(N[C@H]1CC[C@H](CNc2nc(-c3ccccn3)cs2)CC1)c1ccccc1F` [Example 84, trans-2-(4-(2-Fluorophenyl)sulfonylamino)cyclohexylmethyl-amino-4-(2-pyridyl)thiazole dihydrogen chloride], for which the Ki was 8.4 nM.

These data come from patent US7189720B2 (H. Lundbeck A/S, priority 1999, dated 2007).
